Measurements as given in patent US6906205B2, “Spiro and dispiro 1,2,4-trioxolane antimalarials” (Medicines for Malaria Venture MMV, priority 2002, dated 2005).
Values after ≈ are worked out from the molar mass of the structure shown.

What was measured:
[1] = tested on: P. falciparum NF54 strain (sensitive to standard antimalarials); experiment: semiautomated microdilution assay, [3H]-hypoxanthine incorporation, NF54 strain; format: cell-based, Plasmodium falciparum; conditions: NF54 strain, 72 h incubation
Procedure, shortened: (§1)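 Intraerythrocytic stages from unsynchronised stock cultures are exposed to test compounds in a semiautomated microdilution format, and fifty percent inhibitory concentrations are then fitted by logit regression.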

[2] = tested on: ANKA strain of P. berghei; experiment: single dose STI in vivo screen in infected mice; design: species or system Plasmodium berghei; conditions: for Activity (%) po / Survival (days) po: single 10 mg/kg po in 3% ethanol and 7% Tween 80; for Activity (%) po / Activity (%) sc / Activity (%) SSVpo: mice; for Activity (%) sc / Survival (days) sc: single 10 mg/kg sc in 3% ethanol and 7% Tween 80; for Activity (%) SSVpo: single po dose in standard suspending vehicle (SSV); for Survival (days) po / Survival (days) sc / Survival (days) SSVpo: untreated control 5.6 ± 0.3; for Survival (days) SSVpo: single po dose in SSV
Procedure, shortened: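 Groups of 3-5 Moro SPF or NMRI mice infected with the ANKA strain of P. berghei received a single dose of trioxolane on day one post-infection. The compound was given in 3% ethanol and 7% Tween 80 or in SSV (0.5% w/v CMC, 0.5% v/v benzyl alcohol, 0.4% v/v Tween 80, 0.9% w/v sodium chloride in water). Antimalarial activity was scored as percent reduction in parasitemia on day three and as survival time versus untreated controls. Survival to day 30 counted as cure.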

[3] = tested on: P. falciparum K1 strain (Thailand resistant to chloroquine); experiment: semiautomated microdilution assay, [3H]-hypoxanthine incorporation, K1 strain; format: cell-based, Plasmodium falciparum; conditions: K1 strain, 72 h incubation
Procedure, shortened: as §1

[4] = percent reduction in parasitemia day 3 post-infection

Row | Structure (SMILES) | IC50 (ng/ml) NF54 [1] | Activity (%) po [2, 4] [%] | Activity (%) sc [2, 4] [%] | Activity (%) SSVpo [2, 4] [%] | Survival (days) po [2] [days] | Survival (days) sc [2] [days] | Survival (days) SSVpo [2] [days] | IC50 (ng/ml) K1 [3] | Activity (%) 3 mg/kg SSV po ([2]; percent reduction in parasitemia day 3 post-infection, single 3 mg/kg po in SSV) [%] | Activity (%) 10 mg/kg SSV po ([2]; percent reduction in parasitemia day 3 post-infection, single 10 mg/kg po in SSV) [%] | Survival (days) 10 mg/kg SSV po ([2]; single 10 mg/kg po in SSV) [days]
1 | CC(=O)OC[C@H]1CC[C@]2(CC1)OOC1(O2)C2CC3CC(C2)CC1C3 (stereo partly shown) [OZ118] | 0.24 ng/mL (≈ 0.713 nM) | 99.0 | 99.57 | 98 | 7.0 | 8.3 | 8.0 | 1.0 ng/mL (≈ 2.97 nM) | – | – | –
2 | CC(C)(C)NC(=O)N1CCC2(CC1)OOC1(O2)C2CC3CC(C2)CC1C3 (stereo not shown) [OZ143] | 1.8 ng/mL (≈ 4.94 nM) | 48 | 99.85 | 44 | 6.7 | 9.7 | 6.7 | 0.98 ng/mL (≈ 2.69 nM) | – | – | –
3 | CCOC(=O)c1ccc(OC[C@H]2CC[C@]3(CC2)OOC2(O3)C3CC4CC(C3)CC2C4)cc1 (stereo partly shown) [OZ166] | > 10 ng/mL | 11 | 4 | 0 | 6.7 | 5.7 | 6.3 | 28 ng/mL (≈ 63.3 nM) | – | – | –
4 | O=S(=O)(c1ccc(F)cc1)N1CCC2(CC1)OOC1(O2)C2CC3CC(C2)CC1C3 (stereo not shown) [OZ86] | 2.0 ng/mL (≈ 4.72 nM) | 77 | 99.9 | – | 6.7 | 11.3 | – | 0.80 ng/mL (≈ 1.89 nM) | – | – | –
5 | O=C(C[C@H]1CC[C@]2(CC1)OOC1(O2)C2CC3CC(C2)CC1C3)Nc1nccs1 (stereo partly shown) [OZ217] | 2.0/2.0 ng/ml | 67 | 98 | 8 | 7.0 | 8.0 | 6.0 | 2.0/2.0 ng/ml | – | – | –
6 | O=C(O)COCC(=O)N1CCC2(CC1)OOC1(O2)C2CC3CC(C2)CC1C3 (stereo not shown) [OZ112] | >10/>10 ng/ml | 6 | 36 | 0 | 5.7 | 6.3 | 5.7 | >10/>10 ng/ml | – | – | –
7 | NC(=O)CNC(=O)C[C@H]1CC[C@]2(CC1)OO[C@]1(O2)C2CC3CC(C2)CC1C3 [OZ306] | 3.6 ng/mL (≈ 9.51 nM) | – | – | – | – | – | – | 3.9 ng/mL (≈ 10.3 nM) | 87 | 99.58 | 9.2
8 | N=C(N)N1CCC2(CC1)OOC1(O2)C2CC3CC(C2)CC1C3 (stereo not shown) [OZ191] | > 10 ng/mL | 7 | 17 | 5 | 5.7 | 6.0 | 5.7 | 6.0 ng/mL (≈ 19.5 nM) | – | – | –
9 | COC(=O)c1ncnn1C[C@H]1CC[C@]2(CC1)OOC1(O2)C2CC3CC(C2)CC1C3 (stereo partly shown) [OZ233] | 1.9 ng/mL (≈ 4.71 nM) | 69 | 99.66 | 76 | 7.0 | 8.3 | 7.7 | 1.7 ng/mL (≈ 4.21 nM) | – | – | –
